From patent publication US20250051338A1, “TYK2 DEGRADERS AND USES THEREOF” (Kymera Therapeutics, Inc., priority 2021, published 2025)

Tests used:
Type in all cases: cell-based
TYK2 [1] = molecular target: T1, TYK2 (Homo sapiens, UniProt P29597); assay: TYK2 degradation MSD assay in human PBMC cells; design: endogenous in cells; host or cells: human PBMC; details: 4 to 24 hours incubation, read-out: TYK2 MSD DC50 rating in human PBMC
In short: (§1)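 Cells (0.4 million per well) were treated with a 9-point, 1:3 compound series from a top concentration of 1 to 10 μM for 4 to 24 hours at 37° C, then lysed in RIPA with protease/phosphatase inhibitors. Remaining TYK2 was quantified by sandwich MSD immunoassay; DC50 came from four-parameter nonlinear fits.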

TYK2 [2] = molecular target: T1, TYK2; assay: TYK2 degradation MSD assay in EBV-B cells; design: endogenous in cells; host or cells: EBV-B cells; details: 4 to 24 hours incubation, read-out: TYK2 MSD DC50 rating in EBV-B
In short: as §1

TYK2 [3] = molecular target: T1, TYK2; assay: TYK2 degradation MSD assay in OCI-LY10 cells; design: endogenous in cells; host or cells: EBV-B cells; details: 4 to 24 hours incubation, read-out: TYK2 MSD DC50 rating in OCI-LY10
In short: as §1

T1 sequence (P29597 whole entry): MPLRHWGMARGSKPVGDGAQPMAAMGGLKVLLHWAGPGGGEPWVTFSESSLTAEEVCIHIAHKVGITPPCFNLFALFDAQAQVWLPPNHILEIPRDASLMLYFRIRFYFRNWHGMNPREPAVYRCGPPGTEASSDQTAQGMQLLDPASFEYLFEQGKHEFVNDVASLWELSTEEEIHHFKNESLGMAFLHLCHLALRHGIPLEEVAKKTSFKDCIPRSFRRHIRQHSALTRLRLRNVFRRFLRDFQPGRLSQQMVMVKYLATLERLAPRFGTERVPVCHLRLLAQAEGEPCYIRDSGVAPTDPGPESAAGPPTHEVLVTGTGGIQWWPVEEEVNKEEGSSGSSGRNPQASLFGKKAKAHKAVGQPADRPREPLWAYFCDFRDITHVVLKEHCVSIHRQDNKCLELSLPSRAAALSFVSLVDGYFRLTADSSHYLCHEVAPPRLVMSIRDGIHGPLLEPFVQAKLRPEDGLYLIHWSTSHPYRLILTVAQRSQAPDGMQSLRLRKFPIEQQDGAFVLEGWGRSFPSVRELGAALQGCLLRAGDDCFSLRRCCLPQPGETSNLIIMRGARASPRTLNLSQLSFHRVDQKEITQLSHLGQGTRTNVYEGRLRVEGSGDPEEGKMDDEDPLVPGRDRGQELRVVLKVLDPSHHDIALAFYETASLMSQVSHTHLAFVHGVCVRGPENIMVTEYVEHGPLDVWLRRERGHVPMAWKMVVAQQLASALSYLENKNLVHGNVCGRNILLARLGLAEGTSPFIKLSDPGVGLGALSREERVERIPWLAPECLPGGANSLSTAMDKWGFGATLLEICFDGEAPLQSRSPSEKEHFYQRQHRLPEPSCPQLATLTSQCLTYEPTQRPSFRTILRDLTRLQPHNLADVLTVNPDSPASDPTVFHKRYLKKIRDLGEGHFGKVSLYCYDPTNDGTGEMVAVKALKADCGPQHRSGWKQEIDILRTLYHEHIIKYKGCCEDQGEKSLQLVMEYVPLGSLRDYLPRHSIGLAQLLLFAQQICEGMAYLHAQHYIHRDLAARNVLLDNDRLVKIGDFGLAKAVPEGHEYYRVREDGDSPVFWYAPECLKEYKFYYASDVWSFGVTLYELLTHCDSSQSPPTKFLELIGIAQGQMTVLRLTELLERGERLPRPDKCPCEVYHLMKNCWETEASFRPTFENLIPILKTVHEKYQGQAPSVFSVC

| SMILES | DC50 (TYK2 [1]) | DC50 (TYK2 [2]) | DC50 (TYK2 [3]) |
| --- | --- | --- | --- |
| CNC(=O)c1cnc(Nc2ccc(C(=O)NCCCCCCc3ccc4c(c3)n(C)c(=O)n4C3CCC(=O)NC3=O)cn2)cc1Nc1cccc(-c2ncc(F)cn2)c1OC (stereo not drawn) [Example K110] | < 0.001 µM | > 0.1 µM | > 0.1 µM |
| CNc1cc(-c2ccc(C(=O)NCCCCCCc3cccc4c3n(C)c(=O)n4C3CCC(=O)NC3=O)cc2)nn2c(C(=O)N[C@@H]3C[C@@H]3F)cnc12 (stereo partly drawn) [Example K300] | > 0.1 µM | > 0.1 µM | > 0.1 µM |
| CNC(=O)c1cnc(Nc2ccc(C(=O)NCCOCCOCCOCCOCCc3ccc4c(c3)n(C)c(=O)n4C3CCC(=O)NC3=O)cn2)cc1Nc1cccc(-c2ncc(F)cn2)c1OC (stereo not drawn) [Example K113] | 0.001 to 0.01 µM | > 0.1 µM | > 0.1 µM |
| CNC(=O)c1cnc(Nc2cc(CN3CCN(c4cccc5c4n(C)c(=O)n5C4CCC(=O)NC4=O)CC3)ccn2)cc1Nc1cccc(-c2ncc(F)cn2)c1OC (stereo not drawn) [Example K176] | < 0.001 µM | 0.001 to 0.01 µM | > 0.1 µM |
| CNc1cc(Nc2cccn(-c3cccc(C(=O)NCCCCCCCCc4cccc5c4n(C)c(=O)n5C4CCC(=O)NC4=O)c3)c2=O)nn2c(C(=O)N[C@@H]3C[C@@H]3F)cnc12 (stereo partly drawn) [Example K224] | 0.01 to 0.1 µM | > 0.1 µM | > 0.1 µM |
| Cn1c(=O)n(C2CCC(=O)NC2=O)c2ccc(CCCCC(=O)N3CCC(n4cc(-c5ccc6ncc(C(=O)N[C@@H]7C[C@@H]7F)n6n5)cn4)CC3)cc21 (stereo partly drawn) [Example K327] | > 0.1 µM | > 0.1 µM | > 0.1 µM |
| CNc1cc(Nc2cccn(-c3ccc(C(=O)NCCOCCOCCOCCOCCOCCOCCc4cccc5c4n(C)c(=O)n5C4CCC(=O)NC4=O)cn3)c2=O)nn2c(C(=O)N[C@@H]3C[C@@H]3F)cnc12 (stereo partly drawn) [Example K217] | 0.01 to 0.1 µM | 0.01 to 0.1 µM | > 0.1 µM |
| CNC(=O)c1cnc(Nc2ccc(CN3CCC(N(C)c4ccc5c(c4)n(C)c(=O)n5C4CCC(=O)NC4=O)CC3)cn2)cc1Nc1cccc(-c2ncc(F)cn2)c1OC (stereo not drawn) [Example K175] | < 0.001 µM | < 0.001 µM | > 0.1 µM |
| CNc1cc(Nc2cccn(-c3ccc(C(=O)N4CCC5(CCCN(CCc6ccc7c(c6)n(C)c(=O)n7C6CCC(=O)NC6=O)C5)C4)cn3)c2=O)nn2c(C(=O)N[C@@H]3C[C@@H]3F)cnc12 (stereo partly drawn) [Example K426] | > 0.1 µM | > 0.1 µM | > 0.1 µM |
| CNC(=O)c1cnc(Nc2ccc(CN3CCCC(c4ccc5c(c4)n(C)c(=O)n5C4CCC(=O)NC4=O)C3)cn2)cc1Nc1cccc(-c2ncc(F)cn2)c1OC (stereo not drawn) [Example K168] | > 0.1 µM | > 0.1 µM | > 0.1 µM |
| CNC(=O)c1cnc(Nc2ccc(C3CCN(Cc4ccc5c(c4)n(C)c(=O)n5C4CCC(=O)NC4=O)CC3)cn2)cc1Nc1cccc(-c2ncc(F)cn2)c1OC (stereo not drawn) [Example K197] | < 0.001 µM | > 0.1 µM | > 0.1 µM |
| CNC(=O)c1cnc(Nc2ccc(C3CCN(Cc4cccc5c4n(C)c(=O)n5C4CCC(=O)NC4=O)CC3)cn2)cc1Nc1cccc(-c2ncc(F)cn2)c1OC (stereo not drawn) [Example K174] | > 0.1 µM | 0.001 to 0.01 µM | > 0.1 µM |
| CNc1cc(Nc2cccn(-c3ccc(C(=O)N4CC5(CCN(c6cccc7c6n(C)c(=O)n7C6CCC(=O)NC6=O)CC5)C4)cn3)c2=O)nn2c(C(=O)N[C@@H]3C[C@@H]3F)cnc12 (stereo partly drawn) [Example K389] | < 0.001 µM | < 0.001 µM | < 0.001 µM |
| CNc1cc(Nc2cccn(-c3cccc(C(=O)NCCCCc4ccc5c(c4)n(C)c(=O)n5C4CCC(=O)NC4=O)c3)c2=O)nn2c(C(=O)N[C@@H]3C[C@@H]3F)cnc12 (stereo partly drawn) [Example K227] | > 0.1 µM | > 0.1 µM | > 0.1 µM |
| CNc1cc(Nc2cccn(-c3cc(C(=O)NCCOCCOCCOCCOCCc4cccc5c4n(C)c(=O)n5C4CCC(=O)NC4=O)ccn3)c2=O)nn2c(C(=O)N[C@@H]3C[C@@H]3F)cnc12 (stereo partly drawn) [Example K242] | > 0.1 µM | > 0.1 µM | > 0.1 µM |
| CNC(=O)c1cnc(Nc2cc(C(=O)NCCCCCCc3ccc4c(c3)n(C)c(=O)n4C3CCC(=O)NC3=O)ccn2)cc1Nc1cccc(-c2ncc(F)cn2)c1OC (stereo not drawn) [Example K127] | < 0.001 µM | > 0.1 µM | > 0.1 µM |
| CNc1cc(Nc2cccn(-c3cccc(C(=O)NCCOCCOCCc4cccc5c4n(C)c(=O)n5C4CCC(=O)NC4=O)c3)c2=O)nn2c(C(=O)N[C@@H]3C[C@@H]3F)cnc12 (stereo partly drawn) [Example K236] | 0.001 to 0.01 µM | > 0.1 µM | > 0.1 µM |
| CNc1cc(Nc2cccn(C3CCN(C(=O)NCCCCc4ccc5c(c4)n(C)c(=O)n5C4CCC(=O)NC4=O)CC3)c2=O)nc2c(C(=O)N[C@@H]3C[C@@H]3F)cnn12 (stereo partly drawn) [Example K330] | > 0.1 µM | > 0.1 µM | > 0.1 µM |
| CNc1cc(Nc2cccn(-c3ccc(C(=O)N4CCC(CN(C)c5ccc6c(c5)n(C)c(=O)n6C5CCC(=O)NC5=O)CC4)cn3)c2=O)nn2c(C(=O)N[C@@H]3C[C@@H]3F)cnc12 (stereo partly drawn) [Example K390] | < 0.001 µM | > 0.1 µM | > 0.1 µM |
| CNc1cc(Nc2cccn(-c3cc(C(=O)NCCCCCCCCc4cccc5c4n(C)c(=O)n5C4CCC(=O)NC4=O)ccn3)c2=O)nn2c(C(=O)N[C@@H]3C[C@@H]3F)cnc12 (stereo partly drawn) [Example K232] | 0.001 to 0.01 µM | > 0.1 µM | > 0.1 µM |
| CNC(=O)c1cnc(NC(=O)NCCCCCCCCCc2ccc3c(c2)n(C)c(=O)n3C2CCC(=O)NC2=O)cc1Nc1cccc(-c2ncc(F)cn2)c1OC (stereo not drawn) [Example K186] | 0.001 to 0.01 µM | > 0.1 µM | > 0.1 µM |

Results, then the compound that gave them:

| DC50 (TYK2 [1]) | DC50 (TYK2 [2]) | DC50 (TYK2 [3]) | SMILES |
| --- | --- | --- | --- |
| > 0.1 µM | > 0.1 µM | 0.001 to 0.01 µM | CNc1cc(Nc2cccc(CN3CCCC4(C3)CN(c3ncc(C#Cc5ccc6c(c5)n(C)c(=O)n6C5CCC(=O)NC5=O)cn3)C4)c2)nn2c(C(=O)NC3CC3)cnc12 (stereo not drawn) [Example K608] |
| > 0.1 µM | > 0.1 µM | < 0.001 µM | CNc1cc(Nc2cccc(-c3ccc(CN4CCN(C5CCC(c6ccc(-c7ccc8c(c7)n(C)c(=O)n8C7CCC(=O)NC7=O)cc6)CC5)CC4)cn3)c2OC)nn2c(C(=O)N[C@@H]3C[C@@H]3F)cnc12 (stereo partly drawn) [Example K567] |
| > 0.1 µM | < 0.001 µM | < 0.001 µM | CNc1cc(Nc2cccn(-c3ccc(CN4CCN([C@H]5CC[C@H](c6ccc(-c7ccc8c(c7)n(C)c(=O)n8C7CCC(=O)NC7=O)cc6)CC5)CC4)cn3)c2=O)nn2c(C(=O)N[C@@H]3C[C@@H]3F)cnc12 (stereo partly drawn) [Example K454] |
| > 0.1 µM | 0.001 to 0.01 µM | < 0.001 µM | CNc1cc(Nc2cccc(-c3ccc(CN4CCN(c5ccc(-c6ccc7c(c6)n(C)c(=O)n7C6CCC(=O)NC6=O)cc5)CC4)cn3)c2)nc2c(C(=O)N[C@@H]3C[C@@H]3F)cnn12 (stereo partly drawn) [Example K508] |
| > 0.1 µM | > 0.1 µM | > 0.1 µM | CNc1cc(Nc2cccc(N3CCC(CN4CCN(c5cccc6c(C7CCC(=O)NC7=O)cncc56)CC4)CC3)c2)nn2c(C(=O)N[C@@H]3C[C@@H]3F)cnc12 (stereo partly drawn) [Example K503] |
| > 0.1 µM | < 0.001 µM | > 0.1 µM | CNC(=O)c1cnc(Nc2ccc(CN3CCC(N(C)c4cccc5c4n(C)c(=O)n5C4CCC(=O)NC4=O)C3)cn2)cc1Nc1cccc(-c2ncc(F)cn2)c1OC (stereo not drawn) [Example K705] |
| > 0.1 µM | > 0.1 µM | 0.001 to 0.01 µM | CNc1cc(Nc2cccnc2OC2CCN(CCN3CCN(c4ccc5c(c4)n(C)c(=O)n5C4CCC(=O)NC4=O)CC3)CC2)nn2c(C(=O)N[C@@H]3C[C@@H]3F)cnc12 (stereo partly drawn) [Example K531] |
| > 0.1 µM | > 0.1 µM | < 0.001 µM | CNc1cc(N2CCc3c(-c4cc(CN5CCN(c6ccc7c(c6)n(C)c(=O)n7C6CCC(=O)NC6=O)CC5)ccn4)cccc32)nn2c(C(=O)NC3CC3F)cnc12 (stereo not drawn) [Example K657] |
| > 0.1 µM | > 0.1 µM | < 0.001 µM | CNc1cc(Nc2cccc(-c3ccc(C(=O)N4CCC(CN5CCN(c6ccc(-c7ccc8c(c7)n(C)c(=O)n8C7CCC(=O)NC7=O)cc6)CC5)CC4)cn3)c2OC)nn2c(C(=O)N[C@@H]3C[C@@H]3F)cnc12 (stereo partly drawn) [Example K629] |
| > 0.1 µM | > 0.1 µM | < 0.001 µM | CNc1cc(Nc2cccc(-c3ccc(CN4CCN(c5ccc(-c6ccc7c(c6)n(C)c(=O)n7C6CCC(=O)NC6=O)cc5)CC4)cn3)c2F)nn2c(C(=O)N[C@@H]3C[C@@H]3F)cnc12 (stereo partly drawn) [Example K563] |
| > 0.1 µM | > 0.1 µM | < 0.001 µM | CNc1cc(Nc2cccc(-c3ccc(CN4CC5(C4)CN(c4ccc(-c6ccc7c(c6)n(C)c(=O)n7C6CCC(=O)NC6=O)cc4)C5)cn3)c2)nn2c(C(=O)N[C@@H]3C[C@@H]3F)cnc12 (stereo partly drawn) [Example K522] |
| > 0.1 µM | > 0.1 µM | < 0.001 µM | CNc1cc(N2CCc3c(CN4CCC(CN5CCN(c6ccc7c(c6)n(C)c(=O)n7C6CCC(=O)NC6=O)CC5)CC4)cccc32)nn2c(C(=O)N[C@@H]3C[C@@H]3F)cnc12 (stereo partly drawn) [Example K634] |
| > 0.1 µM | > 0.1 µM | > 0.1 µM | CNc1cc(N2CCc3c(C4CCN(CC5CCN(C(=O)c6ccc(Cl)c(N7CCC(=O)NC7=O)c6)CC5)CC4)cccc32)nn2c(C(=O)N[C@@H]3C[C@@H]3F)cnc12 (racemic) [Example K535] |
| > 0.1 µM | > 0.1 µM | < 0.001 µM | CNc1cc(Nc2cccn(-c3ccc(C(=O)N4CCC(OC5CC(c6cccc7c6n(C)c(=O)n7C6CCC(=O)NC6=O)C5)CC4)cn3)c2=O)nn2c(C(=O)N[C@@H]3C[C@@H]3F)cnc12 (stereo partly drawn) [Example K442] |
